Test results from paper PMC8745124, “The Potential Antimicrobial Action of Human Mucin 7 15-Mer Peptide and Its Metal Complexes” (International Journal of Molecular Sciences, 2021).
Values after ≈ are worked out from the molar mass of the structure shown. Read-outs that look alike come from different tables or passages of the source. No end group written: not given here.

Tests used:
E. faecalis ATCC 29212 = assay type: cell-based, Enterococcus faecalis; conditions: ATCC 29212, 24 h
Experimental: (§1) The antimicrobial properties of three peptides (L1, L2, L3) and metal(II) complexes (molar ratio, 1:1) were tested on human pathogenic strains. E. coli ATCC 25922, E. faecalis ATCC 29212, P. aeruginosa ATCC 15422, and S. epidermidis KCTC 1917 were grown at 37 °C in Luria Bertani Broth (LB; 10 g/L bacto-tryptone, 5 g/L bacto-yeast extract, 10 g/L NaCl). The C. albicans […] was grown in a 6.7 g/L yeast nitrogen base (YNB) broth (Difco Laboratories) containing 2% D-glucose at 37 °C. The minimum inhibitory concentration (MIC) values of the peptides and their metal(II) complexes were determined using the microdilution broth method in 96-well microplates (Sarstedt, Nümbrecht, Germany). The serial dilutions of tested compounds (0–500 µM) were dissolved in LB medium for bacteria and YNB medium for C. albicans. The inoculum (2.5 µL) of each strain (10^8 CFU mL^−1) was placed into each well containing 200 µL of serial dilutions of the tested peptides and their metal(II) complexes. […] Bacteria and C. albicans incubated with metal ions were used as additional controls. After 24 h of incubation at 37 °C, the optical density at 600 nm of each well was measured using a multifunctional microplate reader (Synergy™ H1, BioTek, Winooski, VT, USA).

S. epidermidis KCTC 1917 = assay type: cell-based, Staphylococcus epidermidis; conditions: KCTC 1917, 24 h
Experimental: as §1

E. coli ATCC 25922 = assay type: cell-based, Escherichia coli; conditions: ATCC 25922, 24 h
Experimental: as §1

P. aeruginosa ATCC 15422 = assay type: cell-based, Pseudomonas aeruginosa; conditions: ATCC 15422, 24 h
Experimental: as §1

C. albicans ATCC 10231 = assay type: cell-based, Candida albicans; conditions: ATCC 10231, 24 h
Experimental: as §1

[1] = assay type: physicochemical
From the text: Distribution profiles for Cu(II) and Zn(II) complexes calculated based on titrations are depicted in Figure 1. Complexes of L1 with Zn(II) were precipitated in the experimental concentration used for potentiometry above pH 9, while for L2 and L3 complexes were insoluble above pH 7. For copper complexes, precipitation was not observed at any experimental pH value.
Based on the experimental curves, it was possible to determine stability constants only for some complex species (ZnH3L and ZnHL for L2 and ZnH4L, ZnH3L and ZnHL for L3 ligand). […] Based on the competition diagram, Figure 3A, it could be assumed that all His residues are involved in the coordination of the Zn(II) ion directly or indirectly through the steric effect. The L3 ligand has the best affinity to metal ions already in an acidic environment and throughout the range of the tested pH. […] It could be concluded that although L1 and L2 have the same number of histidyl residues, their mutual position affects the effectiveness of metal ion binding at a given pH value. Above pH 6.5, L1 binds the Zn(II) with higher stability than that observed for L2.
Zinc complexes were not soluble above pH 9 and 7 for L1 and L2, L3, respectively. It was surprising that upon contact with the […] n-octanol phase, Zn(II)/L1 complexes formed in the water were precipitated, which prevented further measurement of the partition coefficient logPo/w. This undoubtedly proves the hydrophilic nature of Zn (II)/L1 complexes. In the case of zinc complexes of the remaining ligands, no precipitate was observed, so experimental values of logPo/w were determined. In comparison to free ligands, the lipophilicity of Cu(II) complexes is lower for all studies’ systems. For L2 and L3, and their Zn(II) complex forms, we observed a slight difference in the partition coefficient concerning the ligands themselves, a slight decrease in lipophilicity in the case of Zn(II)/L2 complexes, and an increase in the case of Zn(II)/L3. […]

E. faecalis = conditions: Table S7, cited from earlier work
From the text: (§2) Values are the average of three independent experiments performed in three wells.

E. coli = conditions: Table S7, cited from earlier work
Experimental: (§3) page 13: Table S5. Experimentally measured molar extinction coefficients (ε) and absorbance maxima (λmax) for L1, L2 and L3 which concentration was determined by UV-Vis. Solvent HEPES buffer (50 mM. I = 0.16 M).Path length = 1 cm.T = 25°C. λmax [nm] ε [M-1cm-1] L1 275.5 1076 L2 280 1062 L3 275.5 1077 Table S6. Antimicrobial activity of the […] (L1), […] (L2) and […] (L3) and their metal(II) complexes against pathogenic microorganisms. Values are the average of three independent experiments performed in three wells. Ligands/ E. faecalis S. epidermidis E. coli ...

C. albicans = test system: C. albicans; parameters: method as in 2 sources, one per row (each row's own in cited_ref): ref [33] (a number printed in a supplementary file, which may have a reference list of its own: not looked up in the article's list) ||| ref [36] (a number printed in a supplementary file, which may have a reference list of its own: not looked up in the article's list); conditions: Table S7; ref [36]; cited from earlier work
From the text: as §2

P. aeruginosa = conditions: Table S7, cited from earlier work
Experimental: as §3

[2] = molecular target: His14 (position 14, YGLLAHQ----); assay: potentiometry; conditions: 25 ± 0.2 °C (298 K), I = 0.1 M (KCl), none (HCl/KOH titration under Ar)
[3] = molecular target: His3 (position 3, ---KSHFELPA); assay: potentiometry; conditions: 25 ± 0.2 °C (298 K); I = 0.1 M (KCl); none (HCl/KOH titration under Ar); free peptide, no metal; ligand 1.0 × 10^-3 M (the Table 2 caption says 0.0005 M)
[4] = molecular target: Lys1 (position 1, -----KSHFEL); assay: potentiometry; conditions: 25 ± 0.2 °C (298 K), I = 0.1 M (KCl), none (HCl/KOH titration under Ar)
[5] = molecular target: Nterm1 (position 1, -----KSHFEL); assay: potentiometry; conditions: 25 ± 0.2 °C (298 K); I = 0.1 M (KCl); none (HCl/KOH titration under Ar); free peptide, no metal; ligand 1.0 × 10^-3 M (the Table 2 caption says 0.0005 M)
Tyr9 (position 9, …) [6] = assay: potentiometry; conditions: 25 ± 0.2 °C (298 K), I = 0.1 M (KCl), none (HCl/KOH titration under Ar)
His8 (position 8, …) [7] = assay: potentiometry; conditions: 25 ± 0.2 °C (298 K); I = 0.1 M (KCl); none (HCl/KOH titration under Ar); free peptide, no metal; ligand 1.0 × 10^-3 M (the Table 2 caption says 0.0005 M)
[8] = molecular target: Lys1 (position 1, -----KSAFEL); assay: potentiometry; conditions: 25 ± 0.2 °C (298 K), I = 0.1 M (KCl), none (HCl/KOH titration under Ar)
[9] = molecular target: Nterm1 (position 1, -----KSAFEL); assay: potentiometry; conditions: 25 ± 0.2 °C (298 K); I = 0.1 M (KCl); none (HCl/KOH titration under Ar); free peptide, no metal; ligand 1.0 × 10^-3 M (the Table 2 caption says 0.0005 M)
Tyr9 (position 9, …) [10] = assay: potentiometry; conditions: 25 ± 0.2 °C (298 K), I = 0.1 M (KCl), none (HCl/KOH titration under Ar); remark: listed apart in the source
[11] = molecular target: His3 (position 3, ---KSHFELPH); assay: potentiometry; conditions: 25 ± 0.2 °C (298 K); I = 0.1 M (KCl); none (HCl/KOH titration under Ar); free peptide, no metal; ligand 1.0 × 10^-3 M (the Table 2 caption says 0.0005 M)
His8 (position 8, …) [12] = assay: potentiometry; conditions: 25 ± 0.2 °C (298 K); I = 0.1 M (KCl); none (HCl/KOH titration under Ar); free peptide, no metal; ligand 1.0 × 10^-3 M (the Table 2 caption says 0.0005 M); remark: listed apart in the source
[13] = Cu(II)-bound mononuclear complex (4N coordination), metal:ligand 1:1.1 and 1:2
[14] = free peptide, no metal, ligand 1.0 × 10^-3 M (the Table 2 caption says 0.0005 M)

Question: For KSAFELPHYGLLAHQ [L1], which MIC (E. faecalis ATCC 29212) is on record?
Answer: 145 ± 3.1 µM

Question: And the MIC (S. epidermidis KCTC 1917)?
Answer: 132 ± 1.6 µM

Question: What about the MIC (E. coli ATCC 25922) of the same molecule?
Answer: 412 ± 2.4 µM

Question: And the MIC (P. aeruginosa ATCC 15422)?
Answer: 285 ± 2.6 µM

Question: And the MIC (C. albicans ATCC 10231)?
Answer: 436 ± 2.4 µM

Question: And the solubility in water [1]?
Answer: soluble in water

Question: With Clavanin D as the molecule, how does the MIC (E. faecalis; ref [36]) read?
Answer: 128 µg/mL

Question: What about the MIC (E. coli; ref [36]) of the same molecule?
Answer: 64 µg/mL

Question: And the MIC (C. albicans)?
Answer: 16 µg/mL

Question: For O=C(O)c1cn(C2CC2)c2cc(N3CCNCC3)c(F)cc2c1=O [Ciprofloxacin], which MIC (E. coli; ref [33]) is on record?
Answer: 0.08 µg/mL (≈ 0.241 µM)

Question: And the MIC (P. aeruginosa; ref [33])?
Answer: 0.16 µg/mL (≈ 0.483 µM)

Question: What does the source list for Polymyxin?
Answer: MIC (E. faecalis; ref [34]): > 16 µg/mL; MIC (E. coli; ref [34]): 1 µg/mL; MIC (P. aeruginosa; ref [34]): 1 µg/mL

Question: Which MIC (E. faecalis; ref [35]) does the source give for Gramicidin S here?
Answer: 6.25 µg/mL

Question: What about the MIC (E. coli; ref [35]) of the same molecule?
Answer: 50 µg/mL

Question: What about the MIC (P. aeruginosa; ref [35]) of the same molecule?
Answer: 50 µg/mL

Question: Which results are given for KSHFELPAYGLLAHQ [L2]?
Answer: MIC (E. faecalis ATCC 29212): 163 ± 2.2 µM; MIC (S. epidermidis KCTC 1917): 147 ± 1.6 µM; MIC (E. coli ATCC 25922): 416 ± 0.5 µM; MIC (P. aeruginosa ATCC 15422): 302 ± 2.8 µM; MIC (C. albicans ATCC 10231): 469 ± 1.4 µM; solubility in water [1]: soluble in water

Question: Which MIC (E. faecalis ATCC 29212) does the source give for KSHFELPHYGLLAHQ [L3] here?
Answer: 241 ± 1.6 µM

Question: What about the MIC (S. epidermidis KCTC 1917) of the same molecule?
Answer: 210 ± 2.6 µM

Question: What about the MIC (E. coli ATCC 25922) of the same molecule?
Answer: > 888 µg/mL

Question: What about the MIC (P. aeruginosa ATCC 15422) of the same molecule?
Answer: 313 ± 2.5 µM

Question: What about the MIC (C. albicans ATCC 10231) of the same molecule?
Answer: > 888 µg/mL

Question: And the solubility in water [1]?
Answer: soluble in water

Question: With CNC(C)C1CCC(N)C(OC2C(N)CC(N)C(OC3OCC(C)(O)C(NC)C3O)C2O)O1 (stereo not shown) [Gentamicin] as the molecule, how does the MIC (E. faecalis; ref [33]) read?
Answer: ≥ 2.50 µg/mL

Question: What about the MIC (E. coli; ref [33]) of the same molecule?
Answer: ≥ 2.50 µg/mL

Question: And the MIC (P. aeruginosa; ref [33])?
Answer: 0.31 µg/mL (≈ 0.649 µM)

Question: With Clavanin B as the molecule, how does the MIC (E. faecalis; ref [36]) read?
Answer: 256 µg/mL

Question: And the MIC (E. coli; ref [36])?
Answer: 256 µg/mL

Question: And the MIC (C. albicans)?
Answer: 64 µg/mL

Question: With KSHFELPAYGLLAHQ [MUC7 15-mer peptide analogue L2 (KSHFELPAYGLLAHQ) (Homo sapiens (synthetic peptide); H8A)] as the molecule, how does the pKa [2, 13] read?
Answer: 6.46

Question: And the pKa [2, 14]?
Answer: 6.72

Question: What about the pKa [3] of the same molecule?
Answer: 5.62

Question: And the pKa [4, 13]?
Answer: 10.06

Question: And the pKa [4, 14]?
Answer: 10.50

Question: What about the pKa [5] of the same molecule?
Answer: 7.42

Question: And the pKa (Tyr9 (position 9, …) [6]; [13])?
Answer: 9.43

Question: What about the pKa (Tyr9 (position 9, …) [6]; [14]) of the same molecule?
Answer: 9.58

Question: With KSAFELPHYGLLAHQ [MUC7 15-mer peptide analogue L1 (KSAFELPHYGLLAHQ) (Homo sapiens (synthetic peptide); H3A)] as the molecule, how does the pKa [2, 14] read?
Answer: 6.62

Question: What about the pKa (His8 (position 8, …) [7]) of the same molecule?
Answer: 5.98

Question: What about the pKa [8, 13] of the same molecule?
Answer: 10.86

Question: What about the pKa [8, 14] of the same molecule?
Answer: 9.92

Question: And the pKa [9]?
Answer: 7.59

Question: What about the pKa (Tyr9 (position 9, …) [10]; [13]) of the same molecule?
Answer: 9.61

Question: And the pKa (Tyr9 (position 9, …) [10]; [14])?
Answer: 9.44

Question: With KSHFELPHYGLLAHQ [MUC7 15-mer peptide L3 (KSHFELPHYGLLAHQ, mother peptide) (Homo sapiens (synthetic peptide))] as the molecule, how does the pKa [2, 14] read?
Answer: 6.75

Question: What about the pKa [11] of the same molecule?
Answer: 5.40

Question: And the pKa (His8 (position 8, …) [12])?
Answer: 6.34

Question: What about the pKa [4, 13] of the same molecule?
Answer: 9.85

Question: What about the pKa [4, 14] of the same molecule?
Answer: 10.01

Question: What about the pKa [5] of the same molecule?
Answer: 7.36

Question: What about the pKa (Tyr9 (position 9, …) [10]; [13]) of the same molecule?
Answer: 9.62

Question: What about the pKa (Tyr9 (position 9, …) [10]; [14]) of the same molecule?
Answer: 9.35
